Among the test systems are SNB-78; M19-MEL; DMS-273; XF498; KM-20L2; DLD-1; LXFL 529; RXF 631; HOP-18.
Holding throughout (test): growth of human tumour cells (NCI), 48 h

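Exposure lasted 48 hours, with cells grown in 96-well plates and compounds tested at five concentrations. GI50 is the concentration that inhibits growth by half.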 Activity calls are given as the source filed them. Rule as the data show it: active = GI50 up to about 1.1 µM and inactive = higher.

For `CCc1ccccc1N1CCN(C(=O)c2cc(OC)c(OC)c(OC)c2)CC1`, the GI50 was 0.262 µM (active) in the test on SNB-78; 0.0647 µM (active) in the test with M19-MEL; 0.0277 µM (active) with DMS-273; 0.115 µM (active) in the test on XF498; 0.0813 µM (active) with KM-20L2; 0.2 µM (active) with DLD-1.

For `O=C(NC12CC3CC(CC(C3)C1)C2)C(=O)c1c[nH]c2ccc(Cl)cc12`, the GI50 in the test with SNB-78 was 83.2 µM (inactive); in the test with LXFL 529, 21.8 µM (inactive); with M19-MEL, 79.1 µM (inactive); with DMS-273 it was 16.8 µM (inactive); in the test with XF498, 14.7 µM (inactive); in the test with KM-20L2, 5.73 µM (inactive).

Take `CCOC(=O)C(Oc1ccc(OC)c2c1C(=O)CCC2)c1ccccc1` (configuration not stated): the GI50 in the test on SNB-78 is 74 µM (inactive); in the test with LXFL 529, > 100 µM (inactive); in the test on M19-MEL it was > 100 µM (inactive); in the test with DMS-273, 98.9 µM (inactive); with XF498, > 100 µM (inactive); with KM-20L2 it was > 100 µM (inactive). In the test with DLD-1, the GI50 is > 100 µM (inactive).

Consider `C=CCC1=C2CCCCC2CCC1=O` (configuration not stated), for which the GI50 with SNB-78, in the test on LXFL 529, with M19-MEL, in the test on DMS-273, in the test on XF498 and with DLD-1 was > 100 µM (inactive) throughout. The GI50 in the test with RXF 631 was > 100 µM (inactive).

With `CN1C(=O)CC(c2cccc(C3CC(=O)N(C)C3=O)n2)C1=O` (configuration not stated), the GI50 with SNB-78, with LXFL 529, in the test with HOP-18, with M19-MEL, in the test on DMS-273 and in the test on KM-20L2 was > 100 µM (inactive) each time. Also, the GI50 with DLD-1 was > 100 µM (inactive).

For the compound `CN1N=C2c3ccccc3OC(c3ccccc3)[C@H]2C1c1ccccc1` (some centres not stated), the GI50 in the test on SNB-78 is 26.4 µM (inactive); in the test on LXFL 529, 37.6 µM (inactive); in the test with HOP-18 it was > 100 µM (inactive); in the test on M19-MEL, > 100 µM (inactive); with DMS-273 it was > 100 µM (inactive); with XF498 it was > 100 µM (inactive). In addition, the GI50 is 51.2 µM (inactive) with KM-20L2 and 95.3 µM (inactive) in the test on DLD-1.

Turning to `CCN(CC)CCCNc1nccc2c(C)c3c(cc12)c1cnccc1n3C`, the GI50 in the test on SNB-78 is 0.807 µM (active); in the test on HOP-18, < 0.01 µM (active); in the test with M19-MEL, 0.48 µM (active); in the test with DMS-273, 0.0353 µM (active); with XF498, 0.16 µM (active); in the test on KM-20L2, 0.0682 µM (active). Besides, the GI50 in the test on DLD-1 is 0.0244 µM (active).

As for `C=C(C)C1C/C=C(/C)CCCC2(CCC3=C(CC(C(=C)C)C/C=C(/C)CCC3)O2)C(=O)C1` (configuration not stated), the GI50 with SNB-78, with LXFL 529, in the test with HOP-18, in the test with M19-MEL, with DMS-273 and in the test with XF498 was > 100 µM (inactive) throughout. Moreover, the GI50 in the test on KM-20L2 and in the test on DLD-1 was > 100 µM (inactive) in each case.

Take `C/C(CC(=O)Nc1cccc([N+](=O)[O-])c1)=N/NC(N)=S`: the GI50 in the test on LXFL 529, with M19-MEL, with KM-20L2 and with DLD-1 was > 100 µM (inactive) in each case.

`CS(=O)(=O)OCCN1CCN(C(=O)c2cccc3c(Nc4ccc(S(=O)(=O)N=C(N)N)cc4)c4ccccc4nc23)CC1`: the GI50 with SNB-78, in the test with M19-MEL, with DMS-273, in the test with XF498, in the test on KM-20L2 and in the test on DLD-1 was > 100 µM (inactive) in each case.

For `O=C(CC1(O)C(=O)Nc2c(Cl)ccc(Cl)c21)c1ccc2ccccc2c1` (configuration not stated), the GI50 with SNB-78 was 14.5 µM (inactive); with LXFL 529, 10.2 µM (inactive); in the test on HOP-18, 12.9 µM (inactive); with M19-MEL it was 2.65 µM (inactive); in the test with DMS-273, 5.58 µM (inactive); in the test on XF498, 12.6 µM (inactive). Further, the GI50 in the test with KM-20L2 was 7.08 µM (inactive); in the test with DLD-1 it was 17.9 µM (inactive).

On to `Cc1ccc(S(=O)(=O)N/N=C(\c2nc3ccc([N+](=O)[O-])cc3[nH]c2=O)C(O)c2ccc([N+](=O)[O-])cc2)cc1` (configuration not stated), for which the GI50 in the test with SNB-78 was > 100 µM (inactive); with LXFL 529, 46 µM (inactive); in the test with M19-MEL, > 100 µM (inactive); in the test with DMS-273 it was 54 µM (inactive); in the test on XF498 it was > 100 µM (inactive); in the test with KM-20L2, 46.2 µM (inactive). For the same compound, the GI50 in the test with DLD-1 was 57.1 µM (inactive).

For the compound `C=C(C)C1CC=C(C)C(O)([C@@]2(O)C[C@H](C(=C)C)CC=C2C)C1` (some centres not stated), the GI50 with SNB-78 is 30.6 µM (inactive); in the test on LXFL 529, 26.6 µM (inactive); in the test with M19-MEL, 11.5 µM (inactive); with DMS-273, 16.2 µM (inactive); in the test with XF498 it was 14 µM (inactive); in the test with DLD-1, 30.3 µM (inactive).

As to `CC(=O)NNc1nc(C)c(C(/C=C/c2ccc(/C=C/C(=N\NC(=O)c3ccncc3)c3sc(NNC(C)=O)nc3C)cc2)=N/NC(=O)c2ccncc2)s1`, the GI50 in the test with SNB-78, with LXFL 529, with M19-MEL, in the test on KM-20L2 and with DLD-1 was > 100 µM (inactive) throughout.

In the case of `O=c1ncccn1[C@@H]1O[C@H](CO)[C@H](O)C1O` (some centres not stated), the GI50 was > 99.5 µM (inactive) in the test with SNB-78; > 100 µM (inactive) in the test on LXFL 529; > 100 µM (inactive) in the test with HOP-18; > 100 µM (inactive) with M19-MEL; > 77.1 µM (inactive) in the test with DMS-273; > 100 µM (inactive) in the test on XF498. Further, the GI50 in the test with KM-20L2 is > 78 µM (inactive); in the test with DLD-1, > 100 µM (inactive).

`CSCCC(C(=O)O)N(CC1(O)OCC(O)C(O)C1O)N=O` (configuration not stated): the GI50 in the test with SNB-78, in the test with LXFL 529, in the test with M19-MEL, with DMS-273, in the test on XF498 and in the test with KM-20L2 was > 100 µM (inactive) each time. In addition, the GI50 with DLD-1 and in the test with RXF 631 was > 100 µM (inactive) in each case.

Regarding `C=CCNc1nc2c(s1)C(=O)c1ccccc1C2=O`, the GI50 was 24.4 µM (inactive) in the test with SNB-78; 11.4 µM (inactive) with LXFL 529; 11 µM (inactive) in the test on HOP-18; 1.76 µM (inactive) with M19-MEL; 9.82 µM (inactive) in the test on DMS-273; 20.4 µM (inactive) in the test on XF498. In the test on KM-20L2, the GI50 is 19.1 µM (inactive).

For the compound `O=C1c2ccccc2C(=O)c2cc3c(cc21)C[S+]([O-])C3`, the GI50 in the test on LXFL 529, with HOP-18, with M19-MEL, in the test on DMS-273, in the test on KM-20L2 and in the test on DLD-1 was > 100 µM (inactive) each time.

Turning to `FC(F)(F)c1ccc2nc(Nc3ccc(Cl)c(Cl)c3)c(-c3ccccc3)nc2c1`, the GI50 was 27.4 µM (inactive) with SNB-78; 8.3 µM (inactive) in the test with LXFL 529; > 100 µM (inactive) with HOP-18; 48.5 µM (inactive) with M19-MEL; 6.55 µM (inactive) with DMS-273; 31.2 µM (inactive) in the test on XF498. For the same compound, in the test on KM-20L2, the GI50 was 55.7 µM (inactive).

`COC1=CC(=O)c2ccc(C(C)C)cc2C1(C)C1=NC(C)(C)CO1` (configuration not stated): the GI50 in the test with LXFL 529, in the test with HOP-18, in the test on M19-MEL, in the test with DMS-273, with XF498 and in the test on KM-20L2 was > 100 µM (inactive) each time. For the same compound, the GI50 with DLD-1 is > 100 µM (inactive).

In the case of `CCCCCN(CCCCC)C(=O)[C@@H](CCC(=O)O)NC(=O)c1cc2ccccc2[nH]1`, the GI50 with SNB-78 is 59.6 µM (inactive); in the test with LXFL 529 it was 41.7 µM (inactive); with M19-MEL, 22.3 µM (inactive); in the test on DMS-273, 32.1 µM (inactive); with XF498 it was 26 µM (inactive); with KM-20L2, 40.5 µM (inactive). Moreover, in the test on DLD-1, the GI50 is 31.5 µM (inactive).

On to `NNC(=O)/C(=C/c1ccc(Cl)cc1Cl)NC(=O)c1ccccc1`, for which the GI50 in the test with SNB-78, in the test on LXFL 529, in the test with HOP-18, in the test with M19-MEL, with DMS-273 and in the test with XF498 was > 100 µM (inactive) throughout. For the same compound, the GI50 in the test on DLD-1 is > 100 µM (inactive).

As to `N#CCC(=O)NC1C2CC3CC(C2)CC1C3` (configuration not stated), the GI50 in the test with SNB-78 is 20.5 µM (inactive); in the test on LXFL 529 it was 28.1 µM (inactive); in the test on M19-MEL it was 24.5 µM (inactive); with DMS-273, 21.6 µM (inactive); in the test with KM-20L2, 18.2 µM (inactive); in the test on DLD-1, 20.2 µM (inactive).

`CCCCC(C)C(OC(=O)CC(CC(=O)O)C(=O)O)C(CC(C)CC(O)CCCCC(O)CC(O)C(C)N)OC(=O)CC(CC(=O)O)C(=O)O` (configuration not stated): the GI50 with LXFL 529, in the test on HOP-18, with M19-MEL, in the test with KM-20L2, in the test with DLD-1 and in the test on RXF 631 was > 100 µM (inactive) each time.

Consider `[O-][Cl+3]([O-])([O-])[O-].c1ccc(-c2csc3c4ccccc4c4ccccc4[n+]23)cc1`, for which the GI50 in the test with SNB-78 is 2.08 µM (inactive); in the test with LXFL 529 it was 1.84 µM (inactive); in the test on HOP-18, 14.3 µM (inactive); in the test with M19-MEL it was 1.61 µM (inactive); with DMS-273, 1.6 µM (inactive); with XF498, 1.79 µM (inactive). Also, the figures for the GI50 in the test with KM-20L2 and in the test on DLD-1 were 5.53 µM (inactive) and 5.58 µM (inactive), respectively.

Regarding `CC(=O)NC(CCCCNC(=O)N(C)N=O)C(=O)NCc1ccccc1` (configuration not stated), the GI50 with SNB-78, in the test on LXFL 529, in the test with M19-MEL, in the test on DMS-273, with XF498 and with KM-20L2 was > 100 µM (inactive) in each case. Moreover, the GI50 with DLD-1 and with RXF 631 was > 100 µM (inactive) throughout.

Values taken from ChEMBL document CHEMBL1201862, “PubChem BioAssay data set” (2004).
